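Where inhibition never reached the appropriate level, the endpoint shown equals the highest concentration tested. Otherwise, values were interpolated linearly from a five-concentration, 48-hour dose response in 96-well plates. GI50 = concentration required for 50% inhibition of growth.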 Activity calls are given as the source filed them. No stated cut-off is given here; in the data, active = GI50 up to about 1.1 µM and inactive = higher.
Legend:
Assay in all cases: NCI-60 cell line screen, 48 h
[1] = tested on: 786-0
[2] = tested on: A549
[3] = tested on: ACHN
[4] = tested on: CAKI-1
[5] = tested on: CCRF-CEM
[6] = tested on: COLO 205
[7] = tested on: DLD-1
[8] = tested on: DMS-114
[9] = tested on: DMS-273
[10] = tested on: EKVX
[11] = tested on: HCT-116
[12] = tested on: HCT-15
[13] = tested on: HL-60
[14] = tested on: HOP-18
[15] = tested on: HOP-62
[16] = tested on: HOP-92
[17] = tested on: HT-29
[18] = tested on: IGROV-1
[19] = tested on: K562
[20] = tested on: KM-20L2
[21] = tested on: KM12
[22] = tested on: LOX IMVI
[23] = tested on: LXFL 529
[24] = tested on: M14
[25] = tested on: M19-MEL
[26] = tested on: MOLT-4
[27] = tested on: Malme-3M
[28] = tested on: NCI-H226
[29] = tested on: NCI-H23
[30] = tested on: NCI-H460
[31] = tested on: OVCAR-3
[32] = tested on: OVCAR-4
[33] = tested on: OVCAR-5
[34] = tested on: OVCAR-8
[35] = tested on: RPMI-8226
[36] = tested on: RXF 393
[37] = tested on: SF-268
[38] = tested on: SF-295
[39] = tested on: SF-539
[40] = tested on: SK-MEL-28
[41] = tested on: SK-MEL-2
[42] = tested on: SK-MEL-5
[43] = tested on: SK-OV-3
[44] = tested on: SN12C
[45] = tested on: SNB-19
[46] = tested on: SNB-75
[47] = tested on: SNB-78
[48] = tested on: SR
[49] = tested on: SW-620
[50] = tested on: TK-10
[51] = tested on: U-251
[52] = tested on: UACC-257
[53] = tested on: UACC-62
[54] = tested on: UO-31
[55] = tested on: XF498
[56] = tested on: NCI-H522
[57] = tested on: HCC 2998

FC(F)(F)c1nc(-c2ccccc2Cl)[nH]c1C(F)(F)F
GI50 [1]: 1.08 µM (active)
GI50 [2]: 0.7 µM (active)
GI50 [3]: 0.841 µM (active)
GI50 [4]: 0.679 µM (active)
GI50 [5]: 0.504 µM (active)
GI50 [6]: 0.542 µM (active)
GI50 [7]: 1.13 µM (inactive)
GI50 [8]: 0.673 µM (active)
GI50 [9]: 0.873 µM (active)
GI50 [10]: 0.56 µM (active)
GI50 [11]: 0.729 µM (active)
GI50 [12]: 0.875 µM
GI50 [13]: 0.406 µM (active)
GI50 [14]: 0.364 µM (active)
GI50 [15]: 0.394 µM (active)
GI50 [16]: 0.408 µM (active)
GI50 [17]: 0.94 µM (active)
GI50 [18]: 1.15 µM (inactive)
GI50 [19]: 1.03 µM (active)
GI50 [20]: 0.619 µM (active)
GI50 [21]: 0.975 µM (active)
GI50 [22]: 0.459 µM (active)
GI50 [23]: 0.935 µM (active)
GI50 [24]: 1.12 µM (inactive)
GI50 [25]: 0.697 µM (active)
GI50 [26]: 0.991 µM (active)
GI50 [27]: 0.861 µM (active)
GI50 [28]: 0.61 µM (active)
GI50 [29]: 0.687 µM (active)
GI50 [30]: 0.859 µM (active)
GI50 [31]: 0.223 µM (active)
GI50 [32]: 0.664 µM (active)
GI50 [33]: 0.746 µM (active)
GI50 [34]: 1.11 µM (active)
GI50 [35]: 2.66 µM (inactive)
GI50 [36]: 0.798 µM (active)
GI50 [37]: 1.23 µM (inactive)
GI50 [38]: 0.681 µM (active)
GI50 [39]: 0.893 µM (active)
GI50 [40]: 1.21 µM (inactive)
GI50 [41]: 0.501 µM (active)
GI50 [42]: 0.348 µM (active)
GI50 [43]: 0.841 µM (active)
GI50 [44]: 0.705 µM (active)
GI50 [45]: 0.571 µM (active)
GI50 [46]: 1.07 µM (active)
GI50 [47]: 1.06 µM (active)
GI50 [48]: 0.456 µM (active)
GI50 [49]: 1.15 µM (inactive)
GI50 [50]: 1.13 µM (inactive)
GI50 [51]: 0.318 µM (active)
GI50 [52]: 0.646 µM (active)
GI50 [53]: 0.766 µM (active)
GI50 [54]: 0.675 µM (active)
GI50 [55]: 0.621 µM (active)

O=C(CSc1nnc(-c2ccc(/N=C\c3ccc(Cl)cc3)cc2)o1)Nc1ccccc1[N+](=O)[O-]
GI50 [1]: > 100 µM (inactive)
GI50 [2]: > 100 µM (inactive)
GI50 [3]: > 100 µM (inactive)
GI50 [5]: > 100 µM (inactive)
GI50 [6]: > 100 µM (inactive)
GI50 [8]: > 100 µM (inactive)
GI50 [9]: > 100 µM (inactive)
GI50 [10]: > 100 µM (inactive)
GI50 [11]: > 100 µM (inactive)
GI50 [12]: > 100 µM
GI50 [13]: > 100 µM (inactive)
GI50 [14]: > 100 µM (inactive)
GI50 [15]: > 100 µM (inactive)
GI50 [17]: > 100 µM (inactive)
GI50 [19]: > 100 µM (inactive)
GI50 [20]: > 100 µM (inactive)
GI50 [21]: > 100 µM (inactive)
GI50 [22]: > 100 µM (inactive)
GI50 [23]: > 100 µM (inactive)
GI50 [24]: > 100 µM (inactive)
GI50 [25]: > 100 µM (inactive)
GI50 [26]: > 100 µM (inactive)
GI50 [27]: > 100 µM (inactive)
GI50 [28]: > 100 µM (inactive)
GI50 [29]: > 100 µM (inactive)
GI50 [30]: > 100 µM (inactive)
GI50 [56]: > 100 µM (inactive)
GI50 [32]: > 100 µM (inactive)
GI50 [34]: > 100 µM (inactive)
GI50 [35]: > 100 µM (inactive)
GI50 [36]: 94.6 µM (inactive)
GI50 [37]: > 100 µM (inactive)
GI50 [38]: > 100 µM (inactive)
GI50 [40]: > 100 µM (inactive)
GI50 [41]: > 100 µM (inactive)
GI50 [42]: > 100 µM (inactive)
GI50 [43]: > 100 µM (inactive)
GI50 [44]: > 100 µM (inactive)
GI50 [45]: > 100 µM (inactive)
GI50 [46]: > 100 µM (inactive)
GI50 [47]: > 100 µM (inactive)
GI50 [48]: > 100 µM (inactive)
GI50 [49]: > 100 µM (inactive)
GI50 [50]: > 100 µM (inactive)
GI50 [51]: > 100 µM (inactive)
GI50 [52]: > 100 µM (inactive)
GI50 [53]: > 100 µM (inactive)
GI50 [54]: > 100 µM (inactive)
GI50 [55]: > 100 µM (inactive)

Cc1nn2c(nc1=O)sc1ccc3ccccc3c12
GI50 [1]: > 100 µM (inactive)
GI50 [2]: > 100 µM (inactive)
GI50 [3]: > 100 µM (inactive)
GI50 [4]: > 100 µM (inactive)
GI50 [5]: > 100 µM (inactive)
GI50 [6]: > 100 µM (inactive)
GI50 [7]: > 100 µM (inactive)
GI50 [8]: > 100 µM (inactive)
GI50 [9]: > 100 µM (inactive)
GI50 [10]: > 100 µM (inactive)
GI50 [57]: > 100 µM (inactive)
GI50 [11]: > 100 µM (inactive)
GI50 [12]: > 100 µM
GI50 [13]: > 100 µM (inactive)
GI50 [14]: > 100 µM (inactive)
GI50 [15]: > 100 µM (inactive)
GI50 [16]: > 100 µM (inactive)
GI50 [17]: > 100 µM (inactive)
GI50 [18]: > 100 µM (inactive)
GI50 [19]: > 100 µM (inactive)
GI50 [20]: > 100 µM (inactive)
GI50 [21]: > 100 µM (inactive)
GI50 [22]: > 100 µM (inactive)
GI50 [23]: > 100 µM (inactive)
GI50 [24]: > 100 µM (inactive)
GI50 [25]: > 100 µM (inactive)
GI50 [26]: > 100 µM (inactive)
GI50 [27]: > 100 µM (inactive)
GI50 [28]: > 100 µM (inactive)
GI50 [29]: > 100 µM (inactive)
GI50 [30]: > 100 µM (inactive)
GI50 [31]: > 100 µM (inactive)
GI50 [32]: > 100 µM (inactive)
GI50 [33]: > 100 µM (inactive)
GI50 [34]: > 100 µM (inactive)
GI50 [36]: > 100 µM (inactive)
GI50 [37]: > 100 µM (inactive)
GI50 [38]: > 100 µM (inactive)
GI50 [39]: > 100 µM (inactive)
GI50 [40]: > 100 µM (inactive)
GI50 [41]: > 100 µM (inactive)
GI50 [42]: > 100 µM (inactive)
GI50 [43]: > 100 µM (inactive)
GI50 [44]: > 100 µM (inactive)
GI50 [45]: > 100 µM (inactive)
GI50 [46]: > 100 µM (inactive)
GI50 [47]: > 100 µM (inactive)
GI50 [48]: > 100 µM (inactive)
GI50 [49]: > 100 µM (inactive)
GI50 [50]: > 100 µM (inactive)
GI50 [51]: > 100 µM (inactive)
GI50 [52]: > 100 µM (inactive)
GI50 [53]: > 100 µM (inactive)
GI50 [54]: > 100 µM (inactive)
GI50 [55]: > 100 µM (inactive)
